Measurements as given in BindingDB's records for doi:10.1016/j.bmcl.2007.12.040 (Merck Research Laboratories, 2008).

Assays:
Experiment in all cases: Akt Inhibition Assay
Conditions in all cases: pH 7.5; 22 °C
[1] = molecular target: RAC-alpha serine/threonine-protein kinase (Homo sapiens, UniProt P31749)
Text: (§1) Purified recombinant human Akt kinase was monitored for kinase activity in the presence or absence of inhibitors in a 96-well format. Detection was done by homogeneous time-resolved fluorescence (HTRF) using a europium-labeled Phospho (S21)-GSK3a antibody, and streptavidin-linked XL665 fluorophore which binds to the biotin moiety on the substrate peptide.

[2] = molecular target: RAC-beta serine/threonine-protein kinase (Homo sapiens, UniProt P31751)
RAC-beta serine/threonine-protein kinase, sequence (P31751 whole entry): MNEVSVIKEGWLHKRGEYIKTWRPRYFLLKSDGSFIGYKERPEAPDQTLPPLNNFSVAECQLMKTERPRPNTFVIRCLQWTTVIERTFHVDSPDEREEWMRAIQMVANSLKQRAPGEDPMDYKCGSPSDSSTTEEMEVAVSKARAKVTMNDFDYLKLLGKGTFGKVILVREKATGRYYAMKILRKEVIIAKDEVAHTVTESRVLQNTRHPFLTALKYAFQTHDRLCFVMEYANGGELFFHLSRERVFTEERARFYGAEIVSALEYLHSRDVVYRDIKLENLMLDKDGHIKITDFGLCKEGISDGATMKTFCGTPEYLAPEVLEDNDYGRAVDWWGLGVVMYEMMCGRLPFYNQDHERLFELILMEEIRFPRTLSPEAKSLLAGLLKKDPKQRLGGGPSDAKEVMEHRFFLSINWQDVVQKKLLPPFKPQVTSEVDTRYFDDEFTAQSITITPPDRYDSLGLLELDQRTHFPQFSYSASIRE
Text: as §1

[3] = molecular target: RAC-gamma serine/threonine-protein kinase (Homo sapiens, UniProt Q9Y243)
RAC-gamma serine/threonine-protein kinase, sequence (Q9Y243 whole entry): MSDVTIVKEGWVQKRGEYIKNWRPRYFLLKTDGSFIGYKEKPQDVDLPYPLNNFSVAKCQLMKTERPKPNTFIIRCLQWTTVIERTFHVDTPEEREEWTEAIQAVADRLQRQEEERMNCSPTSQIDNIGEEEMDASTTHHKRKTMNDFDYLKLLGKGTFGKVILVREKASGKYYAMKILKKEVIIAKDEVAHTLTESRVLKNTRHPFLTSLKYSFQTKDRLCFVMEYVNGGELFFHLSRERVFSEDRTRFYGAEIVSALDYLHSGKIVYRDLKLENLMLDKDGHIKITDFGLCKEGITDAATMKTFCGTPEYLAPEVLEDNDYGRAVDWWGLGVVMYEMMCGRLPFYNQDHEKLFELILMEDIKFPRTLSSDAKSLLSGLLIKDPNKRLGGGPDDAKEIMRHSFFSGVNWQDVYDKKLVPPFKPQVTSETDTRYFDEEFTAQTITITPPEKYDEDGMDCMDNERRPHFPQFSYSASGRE
Text: as §1

RAC-alpha serine/threonine-protein kinase, sequence (P31749 whole entry): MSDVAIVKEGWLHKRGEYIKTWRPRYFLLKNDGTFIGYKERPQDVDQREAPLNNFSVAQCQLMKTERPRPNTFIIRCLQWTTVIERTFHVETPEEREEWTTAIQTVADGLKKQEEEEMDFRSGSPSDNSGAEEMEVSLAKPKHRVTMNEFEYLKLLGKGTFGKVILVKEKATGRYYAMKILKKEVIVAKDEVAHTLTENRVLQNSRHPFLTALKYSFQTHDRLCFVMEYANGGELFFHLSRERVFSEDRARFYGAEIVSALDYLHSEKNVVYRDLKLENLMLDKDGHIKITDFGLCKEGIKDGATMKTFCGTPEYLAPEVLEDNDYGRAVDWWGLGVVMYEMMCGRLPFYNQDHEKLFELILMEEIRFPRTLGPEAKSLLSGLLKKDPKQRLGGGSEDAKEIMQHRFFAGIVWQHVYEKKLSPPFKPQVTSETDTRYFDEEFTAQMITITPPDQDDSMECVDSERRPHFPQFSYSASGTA

## Nc1ncnc2c1cnn2C1CCN(Cc2ccc(-c3ncc(-c4nccs4)cc3-c3ccccc3)cc2)CC1 [1-[1-({4-[3-phenyl-5-(1,3-thiazol-2-yl)pyridin-2-yl]phenyl}methyl)piperidin-4-yl]-1H-pyrazolo[3,4-d]pyrimidin-4-amine]
[1]
  IC50: 264 nM
[2]
  IC50: 64 nM

## Nc1ncnc2c1cnn2C1CCN(Cc2ccc(-c3ncc(-c4nnc[nH]4)cc3-c3ccccc3)cc2)CC1 [1-[1-({4-[3-phenyl-5-(1H-1,2,4-triazol-3-yl)pyridin-2-yl]phenyl}methyl)piperidin-4-yl]-1H-pyrazolo[3,4-d]pyrimidin-4-amine]
[1]
  IC50: 182 nM
[2]
  IC50: 101 nM

## Nc1ncnc2c1cnn2C1CCN(Cc2ccc(-c3ncc(-c4ccccn4)cc3-c3ccccc3)cc2)CC1 [1-[1-({4-[3-phenyl-5-(pyridin-2-yl)pyridin-2-yl]phenyl}methyl)piperidin-4-yl]-1H-pyrazolo[3,4-d]pyrimidin-4-amine]
[1]
  IC50: 1630 nM
[2]
  IC50: 370 nM

## Nc1ncnc2c1cnn2C1CCN(Cc2ccc(-c3ncc(-c4ncccn4)cc3-c3ccccc3)cc2)CC1 [1-[1-({4-[3-phenyl-5-(pyrimidin-2-yl)pyridin-2-yl]phenyl}methyl)piperidin-4-yl]-1H-pyrazolo[3,4-d]pyrimidin-4-amine]
[1]
  IC50: 306 nM
[2]
  IC50: 62 nM

## Nc1ncnc2c1cnn2C1CCN(Cc2ccc(-c3ncc(-c4ncon4)cc3-c3ccccc3)cc2)CC1 [1-[1-({4-[5-(1,2,4-oxadiazol-3-yl)-3-phenylpyridin-2-yl]phenyl}methyl)piperidin-4-yl]-1H-pyrazolo[3,4-d]pyrimidin-4-amine]
[1]
  IC50: 180 nM
[2]
  IC50: 121 nM

## Nc1nnc(-c2cnc(-c3ccc(CN4CCC(n5c(=O)[nH]c6ncccc65)CC4)cc3)c(-c3ccccc3)c2)s1 [1-[1-({4-[5-(5-amino-1,3,4-thiadiazol-2-yl)-3-phenylpyridin-2-yl]phenyl}methyl)piperidin-4-yl]-1H,2H,3H-imidazo[4,5-b]pyridin-2-one]
[1]
  IC50: 434 nM
[2]
  IC50: 73 nM

## Nc1nnc(-c2cnc(-c3ccc(CNCCC(=O)c4ccccc4N)cc3)c(-c3ccccc3)c2)s1 [3-[({4-[5-(5-amino-1,3,4-thiadiazol-2-yl)-3-phenylpyridin-2-yl]phenyl}methyl)amino]-1-(2-aminophenyl)propan-1-one]
[1]
  IC50: 114 nM
[2]
  IC50: 30 nM

## Nc1nnc(-c2cnc(-c3ccc(CN4CCC(n5ncc6c(N)ncnc65)CC4)cc3)c(-c3ccccc3)c2)s1 [5-(6-{4-[(4-{4-amino-1H-pyrazolo[3,4-d]pyrimidin-1-yl}piperidin-1-yl)methyl]phenyl}-5-phenylpyridin-3-yl)-1,3,4-thiadiazol-2-amine]
[1]
  IC50: 126 nM
[2]
  IC50: 22 nM

## Nc1nnc(-c2cnc(-c3ccc(CN4CCC(n5cc(-c6cnccn6)cn5)CC4)cc3)c(-c3ccccc3)c2)s1 [5-{5-phenyl-6-[4-({4-[4-(pyrazin-2-yl)-1H-pyrazol-1-yl]piperidin-1-yl}methyl)phenyl]pyridin-3-yl}-1,3,4-thiadiazol-2-amine]
[1]
  IC50: 172 nM
[2]
  IC50: 51 nM

## Nc1nnc(-c2cnc(-c3ccc(CN4CCC(n5cc(-c6ccccn6)cn5)CC4)cc3)c(-c3ccccc3)c2)s1 [5-{5-phenyl-6-[4-({4-[4-(pyridin-2-yl)-1H-pyrazol-1-yl]piperidin-1-yl}methyl)phenyl]pyridin-3-yl}-1,3,4-thiadiazol-2-amine]
[1]
  IC50: 214 nM
[2]
  IC50: 90 nM

## Nc1nnc(-c2cnc(-c3ccc(CN4CCC(c5n[nH]c(-c6ccccn6)n5)CC4)cc3)c(-c3ccccc3)c2)s1 [5-{5-phenyl-6-[4-({4-[5-(pyridin-2-yl)-1H-1,2,4-triazol-3-yl]piperidin-1-yl}methyl)phenyl]pyridin-3-yl}-1,3,4-thiadiazol-2-amine]
[1]
  IC50: 85 nM
[2]
  IC50: 22 nM

## Nc1nnc(-c2cnc(-c3ccc(CN4CCC(c5cc(-c6ccccn6)[nH]n5)CC4)cc3)c(-c3ccccc3)c2)s1 [5-{5-phenyl-6-[4-({4-[5-(pyridin-2-yl)-1H-pyrazol-3-yl]piperidin-1-yl}methyl)phenyl]pyridin-3-yl}-1,3,4-thiadiazol-2-amine]
[1]
  IC50: 95 nM
[2]
  IC50: 28 nM

## Nc1nnc(-c2cnc(-c3ccc(CN4CCC(c5cc(-c6ccncc6)[nH]n5)CC4)cc3)c(-c3ccccc3)c2)s1 [5-{5-phenyl-6-[4-({4-[5-(pyridin-4-yl)-1H-pyrazol-3-yl]piperidin-1-yl}methyl)phenyl]pyridin-3-yl}-1,3,4-thiadiazol-2-amine]
[1]
  IC50: 123 nM
[2]
  IC50: 38 nM

## Nc1ncnc2c1ncn2C1CCN(Cc2ccc(-c3ncc(-c4nnn[nH]4)cc3-c3ccccc3)cc2)CC1 [9-[1-({4-[3-phenyl-5-(1H-1,2,3,4-tetrazol-5-yl)pyridin-2-yl]phenyl}methyl)piperidin-4-yl]-9H-purin-6-amine]
[1]
  IC50: 210 nM
[2]
  IC50: 105 nM
[3]
  IC50: > 50 µM
